This experiment concerns the target T1, κ receptor (Cavia porcellus, UniProt P41144).
T1 construct: tissue homogenates prepared from guinea pig brains (cortex and cerebellum); tissue Harlan Bioproducts for Science (Indianapolis, Ind.); host or cells: guinea pig brain, cortex and cerebellum, crude membrane homogenate
Briefly: Radioreceptor assay selective for the kappa receptor (inhibition of [3H]-U69,593 binding). The arrangement: species or system guinea pig. On the procedure:
Guinea pig brains, frozen in liquid nitrogen, were obtained from Harlan Bioproducts for Science (Indianapolis, Ind.). Frozen brains were thawed, the cerebella and cortex were removed and weighed. The combined cortex and cerebella were homogenized in 40 ml Tris-HCl buffer (50 mM, pH 7.4, 4° C.) containing 100 μM phenylmethylsulfonyl fluoride (PMSF) 5 mM MgCl2 and 1 mg/ml bovine serum albumin (BSA) and centrifuged (39000×g) (Model J2-HC; Beckman Instruments, Fullerton, Calif.) for 10 min at 4° C. The pellets were resuspended in fresh Tris-HCl buffer and incubated at 37° C. for 40 min. Following incubation, the suspensions were centrifuged as above, the resulting pellets resuspended in 100 volumes of Tris buffer and the suspensions combined. Membrane suspensions were prepared and used in the same day. Protein content of the crude homogenates ranged from 0.1-0.3 mg/ml as determined using the method described by Bradford in Anal. Biochem. 72:248-254 (1976), which is incorporated herein by reference.
Binding assays were carried out in polypropylene tubes. […] Assay tubes were incubated for 2.5 hr at 25° C. The reaction was terminated by filtration through GF-B filters (Wallac, Gaithesburg, Md.). The filters were subsequently washed with 6 ml Tris-HCl buffer at 4° C. Bound radioactivity was counted on a Beta-plate Liquid Scintillation Counter (Life Technologies, Gaithersburg, Md.) and expressed in counts per minute (cpm). Standard curves were prepared using 0.05-6300 nM naloxone (Sigma, St. Louis, Mo.). Competitive inhibition assays were performed as above using serial dilutions of the peptide mixtures. IC50 values were then calculated using the software […] (ISI, San Diego, Calif.).

Square brackets hold non-standard residues; d marks the D form. Peptide text beside a SMILES is read from it. dCha = N[C@H](CC1CCCCC1)C(=O)O; dNle = CCCC[C@@H](N)C(=O)O

In patent US5610271A, “Kappa receptor selective opioid peptides” (Torrey Pines Institute for Molecular Studies, priority 1995, dated 1997) one finds IC50 data, which are given here for 15 compounds.

T1 sequence (P41144 whole entry): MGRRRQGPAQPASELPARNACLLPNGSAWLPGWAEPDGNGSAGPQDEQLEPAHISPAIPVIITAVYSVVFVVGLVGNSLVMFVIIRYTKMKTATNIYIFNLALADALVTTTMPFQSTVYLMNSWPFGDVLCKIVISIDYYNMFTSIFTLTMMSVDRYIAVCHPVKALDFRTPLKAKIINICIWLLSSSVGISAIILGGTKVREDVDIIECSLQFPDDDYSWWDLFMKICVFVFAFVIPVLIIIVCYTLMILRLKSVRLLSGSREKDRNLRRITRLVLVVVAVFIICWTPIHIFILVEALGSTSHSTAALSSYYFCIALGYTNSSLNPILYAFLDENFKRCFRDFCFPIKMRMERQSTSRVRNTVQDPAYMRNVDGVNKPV

As a reminder, the IC50 is the point on the concentration scale where inhibition reaches its midpoint. Low readings indicate higher potency, high ones lower potency. Compound `CCCC[C@@H](N)C(=O)N[C@H](Cc1ccccc1)C(=O)N[C@@H](Cc1c[nH]c2ccccc12)C(=O)N[C@H](CC1CCCCC1)C(=O)O` [SEQ ID NO. 25, (D)Nle-(D)Phe-Trp-(D)ChAla] (H-[dNle][dF]W[dCha]-OH) returned an IC50 of 42800 nM.
The same measure for Ac-YRTRYRYRRR-NH2 [SEQ ID NO. 1]: 10 nM; for `CC[C@@H](C)[C@@H](NC(=O)[C@@H](Cc1ccccc1)NC(=O)[C@H](N)Cc1ccccc1)C(=O)N[C@H](CCCNC(=N)N)C(=O)O` [SEQ ID NO. 16, (D)Phe-(D)Phe-(D)Ile-(D)Arg]: 2 nM.
The figure for `CC[C@@H](C)[C@@H](NC(=O)[C@@H](Cc1ccccc1)NC(=O)[C@H](N)Cc1ccccc1)C(=O)N[C@H](CC1CCCCC1)C(=O)O` [SEQ ID NO. 17, (D)Phe-(D)Phe-(D)Ile-(D)ChAla] (H-[dF][dF][dI][dCha]-OH) is 169 nM; for `CCCC[C@@H](N)C(=O)N[C@H](Cc1ccccc1)C(=O)N[C@@H](C(=O)N[C@H](CC1CCCCC1)C(=O)O)[C@H](C)CC` [SEQ ID NO. 27, (D)Nle-(D)Phe-(D)Ile-(D)ChAla] (H-[dNle][dF][dI][dCha]-OH) it is 1450 nM.
The same measure for `N[C@H](Cc1ccccc1)C(=O)N[C@H](Cc1ccccc1)C(=O)N[C@@H](Cc1c[nH]c2ccccc12)C(=O)N[C@H](CC1CCCCC1)C(=O)O` [SEQ ID NO. 15, (D)Phe-(D)Phe-Trp-(D)ChAla] (H-[dF][dF]W[dCha]-OH): 52400 nM.
`N=C(N)NCCC[C@@H](NC(=O)[C@H](Cc1c[nH]c2ccccc12)NC(=O)[C@@H](Cc1ccccc1)NC(=O)[C@H](N)Cc1ccccc1)C(=O)O` [SEQ ID NO. 14, (D)Phe-(D)Phe-Trp-(D)Arg] (H-[dF][dF]W[dR]-OH) showed an IC50 of 4950 nM.
The same measure for Ac-RFFRYRYRRR-NH2 [SEQ ID NO. 3]: 22 nM.
Ac-YRFRYRYRRR-NH2 [SEQ ID NO. 2]: the half-inhibitory concentration (IC50) turned out to be 18 nM.
The same measure for `CCCC[C@@H](N)C(=O)N[C@H](Cc1ccccc1)C(=O)N[C@H](CCCC)C(=O)N[C@H](CCCNC(=N)N)C(=O)O` [SEQ ID NO. 23, (D)Nle-(D)Phe-(D)Nle-(D)Arg] (H-[dNle][dF][dNle][dR]-OH): 10 nM; for `CCCC[C@@H](N)C(=O)N[C@H](Cc1ccccc1)C(=O)N[C@@H](Cc1c[nH]c2ccccc12)C(=O)N[C@H](CCCNC(=N)N)C(=O)O` [SEQ ID NO. 24, (D)Nle-(D)Phe-Trp(D)Arg] (H-[dNle][dF]W[dR]-OH): 11000 nM; for `CCCC[C@@H](N)C(=O)N[C@H](Cc1ccccc1)C(=O)N[C@@H](C(=O)N[C@H](CCCNC(=N)N)C(=O)O)[C@H](C)CC` [SEQ ID NO. 26, (D)Nle-(D)Phe-(D)Ile-(D)Arg] (H-[dNle][dF][dI][dR]-OH): 16 nM.
Take `CCCC[C@@H](NC(=O)[C@@H](Cc1ccccc1)NC(=O)[C@H](N)Cc1ccccc1)C(=O)N[C@H](CC1CCCCC1)C(=O)O` [SEQ ID NO. 13, (D)Phe-(D)Phe-(D)Nle-(D)ChAla] (H-[dF][dF][dNle][dCha]-OH): the concentration for half-maximal inhibition (IC50) was 3 nM.
The figure for Ac-YRMRYRYRRR-NH2 [SEQ ID NO. 4] is 36 nM; for Ac-RRFRYRYRRR-NH2 [SEQ ID NO. 5] it is 142 nM.
